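Five concentrations, 48 hours, 96-well plates. GI50 marks 50% less growth. At the TGI there is no net growth.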
Experiments:
Assay in all cases: DTP human tumour cell line panel, 48 h
[1] = system: 786-0 renal
[2] = system: A498 renal
[3] = system: A549 NSCLC
[4] = system: ACHN renal
[5] = system: BT-549 breast
[6] = system: CAKI-1 renal
[7] = system: CCRF-CEM leukemia
[8] = system: COLO 205 colon
[9] = system: DU-145 prostate
[10] = system: EKVX NSCLC
[11] = system: HCC-2998 colon
[12] = system: HCT-116 colon
[13] = system: HCT-15 colon
[14] = system: HL-60(TB) leukemia
[15] = system: HOP-62 NSCLC
[16] = system: HOP-92 NSCLC
[17] = system: HS 578T breast
[18] = system: HT29 colon
[19] = system: IGROV1 ovarian
[20] = system: K-562 leukemia
[21] = system: KM12 colon
[22] = system: LOX IMVI melanoma
[23] = system: M14 melanoma
[24] = system: MALME-3M melanoma
[25] = system: MCF7 breast
[26] = system: MDA-MB-231 breast
[27] = system: MDA-MB-435
[28] = system: MDA-MB-468 breast
[29] = system: MOLT-4 leukemia
[30] = system: NCI-H226 lung
[31] = system: NCI-H23 lung
[32] = system: NCI-H460 lung
[33] = system: NCI-H522 lung
[34] = system: NCI/ADR-RES ovarian
[35] = system: OVCAR-3 ovarian
[36] = system: OVCAR-4 ovarian
[37] = system: OVCAR-5 ovarian
[38] = system: OVCAR-8 ovarian
[39] = system: PC-3 prostate
[40] = system: RPMI-8226 leukemia
[41] = system: RXF 393 renal
[42] = system: SF-268 CNS
[43] = system: SF-295 CNS
[44] = system: SF-539 CNS
[45] = system: SK-MEL-2 melanoma
[46] = system: SK-MEL-28 melanoma
[47] = system: SK-MEL-5 melanoma
[48] = system: SK-OV-3 ovarian
[49] = system: SN12C renal
[50] = system: SNB-19 CNS
[51] = system: SNB-75 CNS
[52] = system: SR leukemia
[53] = system: SW-620 colon
[54] = system: T-47D breast
[55] = system: TK-10 renal
[56] = system: U251 CNS
[57] = system: UACC-257 melanoma
[58] = system: UACC-62 melanoma
[59] = system: UO-31 renal

Compound `COc1ccc(NC(=O)CSc2nnc(-c3ccc(-c4nc5ccc(Cl)cc5[nH]4)cc3)o2)cc1` has a GI50 [1] of 1.74 µM, a TGI [1] of 3.56 µM and a GI50 [2] of 4.26 µM. For the same compound, the TGI [2] was 16 µM, the GI50 [3] was 2.44 µM and the TGI [3] was 10.7 µM. It also gave a GI50 [4] of 2.69 µM, a TGI [4] of 11.6 µM and a GI50 [5] of 2.75 µM. It also gave a TGI [5] of 6.12 µM, a GI50 [6] of 1.54 µM and a TGI [6] of 3.38 µM. For the same compound, the GI50 [7] was 6.86 µM, the TGI [7] was greater than 100 µM and the GI50 [8] was 19 µM. The TGI [8] was 92.1 µM, the GI50 [9] was 2.29 µM and the TGI [9] was 5.61 µM. It also gave a GI50 [10] of 2.67 µM, a TGI [10] of 13.3 µM and a GI50 [11] of 43.5 µM. For the same compound, the TGI [11] was greater than 100 µM, the GI50 [12] was 3.91 µM and the TGI [12] was 26.7 µM. It also gave a GI50 [13] of 7.77 µM, a TGI [13] of 84.2 µM and a GI50 [14] greater than 100 µM. It also gave a TGI [14] greater than 100 µM, a GI50 [15] of 2.52 µM and a TGI [15] of 5.37 µM. For the same compound, the GI50 [16] was 2.62 µM, the TGI [16] was 10.6 µM and the GI50 [17] was 2.28 µM. For the same compound, the TGI [17] was 7.23 µM, the GI50 [18] was 4.9 µM and the TGI [18] was 23.3 µM. The GI50 [19] was 12.4 µM, the TGI [19] was 25.3 µM and the GI50 [20] was 2.74 µM. It also gave a TGI [20] greater than 100 µM, a GI50 [21] of 5.16 µM and a TGI [21] of 25.7 µM. It also gave a GI50 [22] of 2.29 µM, a TGI [22] of 6.68 µM and a GI50 [23] of 3.74 µM. The TGI [23] was 17.2 µM, the GI50 [24] was 1.9 µM and the TGI [24] was 5.63 µM. The GI50 [25] was 4.39 µM, the TGI [25] was 74.2 µM and the GI50 [26] was 3.77 µM. For the same compound, the TGI [26] was 13.8 µM, the GI50 [27] was 1.87 µM and the TGI [27] was 8.03 µM. It also gave a GI50 [28] of 15 µM, a TGI [28] of 38.4 µM and a GI50 [29] of 6.46 µM. It also gave a TGI [29] greater than 100 µM, a GI50 [30] of 1.94 µM and a TGI [30] of 5.19 µM. For the same compound, the GI50 [31] was 2.97 µM, the TGI [31] was 11.4 µM and the GI50 [32] was 1.35 µM. The TGI [32] was 4.16 µM, the GI50 [33] was 2.11 µM and the TGI [33] was 8.03 µM. For the same compound, the GI50 [34] was 10.2 µM, the TGI [34] was 42.9 µM and the GI50 [35] was 3.72 µM. The TGI [35] was 14 µM, the GI50 [36] was 3.02 µM and the TGI [36] was 10 µM. It also gave a GI50 [37] of 6.44 µM, a TGI [37] of 22 µM and a GI50 [38] of 3.58 µM. It also gave a TGI [38] of 26 µM, a GI50 [39] of 1.61 µM and a TGI [39] of 4.27 µM. The GI50 [40] was 12 µM, the TGI [40] was greater than 100 µM and the GI50 [41] was 2.3 µM. For the same compound, the TGI [41] was 5.61 µM, the GI50 [42] was 2.22 µM and the TGI [42] was 5.48 µM. For the same compound, the GI50 [43] was 1.36 µM, the TGI [43] was 4.05 µM and the GI50 [44] was 1.9 µM. For the same compound, the TGI [44] was 4.52 µM, the GI50 [45] was 6.96 µM and the TGI [45] was 25.4 µM. It also gave a GI50 [46] of 1.96 µM, a TGI [46] of 5.79 µM and a GI50 [47] of 3.02 µM. For the same compound, the TGI [47] was 11.8 µM, the GI50 [48] was 2.87 µM and the TGI [48] was 7.61 µM. It also gave a GI50 [49] of 3.27 µM, a TGI [49] of 16.3 µM and a GI50 [50] of 2.54 µM. For the same compound, the TGI [50] was 7.59 µM, the GI50 [51] was 1.42 µM and the TGI [51] was 3.86 µM. It also gave a GI50 [52] of 10.3 µM, a TGI [52] greater than 100 µM and a GI50 [53] of 4.54 µM. It also gave a TGI [53] of 20.6 µM, a GI50 [54] of 14.2 µM and a TGI [54] of 57.9 µM. For the same compound, the GI50 [55] was 16.5 µM, the TGI [55] was 30.1 µM and the GI50 [56] was 4.83 µM. The TGI [56] was 16.5 µM, the GI50 [57] was 3.83 µM and the TGI [57] was 23.6 µM. The GI50 [58] was 3.81 µM, the TGI [58] was 15.3 µM and the GI50 [59] was 10.9 µM. It also gave a TGI [59] of 23.1 µM.
